# Legend:
# [1] = molecular target: T1, BRD4 Bromodomain 1 (BRD4 BD1) (Homo sapiens, UniProt O60885); test: AlphaScreen binding assay, BRD4 BD1; settings: His-tagged BRD4 BD1 50 nM, biotinylated H4 (1-21) K5/8/12/16 tetra-acetylated peptide 50 nM, compounds listed under IC50 range headings
# T1 construct: 44-168 and BRD4 BD2
# Procedure, shortened: (§1)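 Compound dilution series were mixed with His-tagged BRD4 bromodomain and biotinylated tetra-acetylated H4 (1-21) peptide at pH 7.3 (BD1 and peptide at 50 nM, BD2 and peptide at 100 nM). Donor and acceptor beads were then added, and plates were equilibrated at least 1 h before reading. IC50 values were fitted with a four-parameter logistic model.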
# [2] = molecular target: T2, BRD4 Bromodomain 2 (BRD4 BD2) (Homo sapiens, UniProt O60885); test: AlphaScreen binding assay, BRD4 BD2; settings: His-tagged BRD4 BD2 100 nM, biotinylated H4 (1-21) K5/8/12/16 tetra-acetylated peptide 100 nM, compounds listed under IC50 range headings
# T2 construct: 333-460 were cloned, expressed, and purified to homogeneity
# Procedure, shortened: as §1
# [3] = tested on: acute myelocytic leukemia (AML) cell line MV4-11; test: Oncology cell growth assay (3-day proliferation, CellTiter-Glo); format: cell-based; settings: Homo sapiens, MV4-11, 72 h, MV4-11 cells, 3000 cells/well, compounds listed under IC50 range headings, read-out: MV411 IC50 (gIC50, inhibition of proliferation)
# Procedure, shortened: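 72 h, 37° C, 5% CO2; MV4-11, 3000 cells/well, RPMI 1640 + 10% FBS. Compound final 10, 3.3, 1.1, 0.37, 0.12, 0.041, 0.013, 0.0045 μM. Readout CellTiter-Glo luminescence; gIC50 by 4-parameter logistic fit, normalised to DMSO and no-cell background.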
Compound,IC50 [1] [nM],IC50 [2] [nM],IC50 [3] [nM]
CC(=O)N1c2ccc(-c3cccc(NS(C)(=O)=O)c3)c(OCC(=O)N(C)C)c2CC[C@@H]1C [I-491],1000 to 10000,50 to 500,> 1000
CC(=O)N1c2ccc(-c3cnn(C4CC4)c3)c(OC3CCC3)c2CC[C@@H]1C [I-389],100 to 1000,< 50,< 500
"COC(=O)N1c2ccc(-c3cnn([C@@H]4CCNC[C@@H]4F)c3)c(OC3CCC3)c2CC[C@@H]1C [I-361, methyl (S)-5-cyclobutoxy-6-(1-((3S,4R)-3-fluoropiperidin-4-yl)-1H-pyrazol-4-yl)-2-methyl-3,4-dihydroquinoline-1(2H)-carboxylate]",< 100,< 50,< 500
"COC(=O)N1c2ccc(-c3cnn(C4CS(=O)(=O)C4)c3)c(OC3CCC3)c2CC[C@@H]1C [I-61, Methyl (S)-5-cyclobutoxy-6-(1-(1,1-dioxidothietan-3-yl)-1H-pyrazol-4-yl)-2-methyl-3,4-dihydroquinoline-1(2H)-carboxylate]",100 to 1000,50 to 500,< 500
"CC(=O)N1c2ccc(-c3cnn(C4CC4)c3)c(OCCN3CCCS3(=O)=O)c2CC[C@@H]1C [I-44, 2-(2-{[(2S)-1-acetyl-6-(1-cyclopropyl-1H-pyrazol-4-yl)-2-methyl-1,2,3,4-tetrahydroquinolin-5-yl]oxy}ethyl)-1λ^6,2-thiazolidine-1,1-dione]",100 to 1000,< 50,500 to 1000
"COC(=O)N1c2ccc(-c3cnn([C@H]4CCNC[C@H]4F)c3)c(OC3CCC3)c2CC[C@@H]1C [I-362, methyl (2S)-5-cyclobutoxy-6-{1-[(3R,4S)-3-fluoropiperidin-4-yl]-1H-pyrazol-4-yl}-2-methyl-1,2,3,4-tetrahydroquinoline-1-carboxylate]",100 to 1000,< 50,< 500
CCCOc1c(-c2cnn(CCO)c2)ccc2c1CC[C@H](C)N2C(=O)OC [I-443],1000 to 10000,< 50,< 500

# The remaining lines, values ahead:
IC50 [1] [nM],IC50 [2] [nM],IC50 [3] [nM],Compound
100 to 1000,< 50,< 500,"COC(=O)N1c2ccc(-c3cnn(C4CCNCC4)c3)c(Oc3ccc(F)cc3F)c2CC[C@@H]1C [I-263, (S)-methyl 5-(2,4-difluorophenoxy)-2-methyl-6-(1-(piperidin-4-yl)-1H-pyrazol-4-yl)-3,4-dihydroquinoline-1(2H)-carboxylate]"
1000 to 10000,< 50,< 500,"COC(=O)N1c2ccc(-c3cnn(C4CC4)c3)c(Oc3ccc(Cl)cc3)c2CC[C@@H]1C [I-214, (S)-methyl 5-(4-chlorophenoxy)-6-(1-cyclopropyl-1H-pyrazol-4-yl)-2-methyl-3,4-dihydroquinoline-1(2H)-carboxylate]"
1000 to 10000,50 to 500,> 1000,COC(=O)N1c2ccc(-c3cnn(C4CCNCC4)c3)c(Oc3ccc(C(N)=O)cn3)c2CC[C@@H]1C [I-538]
100 to 1000,50 to 500,500 to 1000,CC(=O)N1c2ccc(-c3cnn(C4CCNCC4)c3)c(OCC(=O)N3CCCC3)c2CC[C@@H]1C [I-431]
100 to 1000,< 50,< 500,"CC(=O)N1c2ccc(-c3cnn(C4CC4)c3)c(Oc3ccc(C)cn3)c2CC[C@@H]1C [I-287, (S)-1-(6-(1-cyclopropyl-1H-pyrazol-4-yl)-2-methyl-5-(5-methylpyridin-2-yloxy)-3,4-dihydroquinolin-1(2H)-yl)ethanone]"
100 to 1000,< 50,< 500,"C[C@H]1CCc2c(ccc(-c3cnn(C4CNC4)c3)c2Oc2ccc(F)cc2)N1C(=O)C1CC1 [I-170, (S)-(6-(1-(azetidin-3-yl)-1H-pyrazol-4-yl)-5-(4-fluorophenoxy)-2-methyl-3,4-dihydroquinolin-1 (2H)-yl)(cyclopropyl)methanone]"
1000 to 10000,50 to 500,< 500,COC(=O)N1c2ccc(-c3cnn(C4CC4)c3)c(Oc3ncccc3C#N)c2CC[C@@H]1C [I-569]
